ChEMBL document CHEMBL3751735, “Discovery of 2-(4-sulfonamidophenyl)-indole 3-carboxamides as potent and selective inhibitors with broad hepatitis C virus genotype activity targeting HCV NS4B” (Bioorg Med Chem Lett, 2016)

How the values were obtained:
Hepatitis C virus [1] = test: Antiviral activity against HCV genotype 1b Con1 bicistronic replicon infected in human Huh7 cells assessed as replicon RNA expression measured 3 days post dose by real time RT-PCR analysis; format: functional, organism-based, Hepacivirus hominis; conditions: isolate Con1, Huh-7, 72 h
[2] = Toxicity against human HuH7 cells harboring HCV genotype 1b bicistronic replicon assessed as inhibition of GAPDH mRNA expression measured 3 days post dose by real time RT-PCR analysis; format: cell-based, Huh-7
Hepatitis C virus [3] = test: Antiviral activity against HCV genotype 3a S52/SG-Feo(SH) infected in human HuH7.5 cells measured 3 days post dose by Luciferase assay; format: functional, organism-based, Hepacivirus hominis; conditions: Huh-7, 72 h
[4] = Ratio of drug level in liver to plasma in Sprague-Dawley rat at 10 mg/kg, po measured 6 hrs post dose; format: ADME, organism-based; conditions: liver and plasma
Hepatitis C virus [5] = test: Antiviral activity against HCV genotype 1a H77S bicistronic replicon infected in human Huh7 cells assessed as replicon RNA expression measured 3 days post dose by real time RT-PCR analysis; format: functional, organism-based, Hepacivirus hominis; conditions: Huh-7, 72 h
[6] = AUC (0 to 6 hrs) in Sprague-Dawley rat plasma at 10 mg/kg, po measured at 30 mins to 6 hrs post dose; format: ADME, organism-based; parameters: dose 10 mg/kg, time < 6 hr, route oral
Hepatitis C virus [7] = test: Antiviral activity against HCV genotype 2a JFH-1 infected in human HuH7.5 cells assessed as HCV RNA expression measured 72 hrs post dose by qRT-PCR analysis; format: functional, organism-based, Hepacivirus hominis; conditions: JFH-1, Huh-7, 72 h
Hepatitis C virus [8] = test: Antiviral activity against HCV genotype 1b harboring NS4B V105M mutant relative to wild type HCV genotype 1b; format: functional, Hepacivirus hominis
Hepatitis C virus [9] = test: Antiviral activity against HCV genotype 1b harboring NS4B F98C mutant relative to wild type HCV genotype 1b; format: functional, Hepacivirus hominis

With Cc1cc(F)c2c(C(N)=O)c(-c3ccc(NS(=O)(=O)C(C)(C)C)cc3)n(C3CCCC3)c2c1 the EC50 (Hepatitis C virus [1]) was 34 nM and the IC50 at 3 days [2] was over 10000 nM.
With Cc1cc2c(cc1F)c(C(N)=O)c(-c1ccc(NS(=O)(=O)C(C)(C)C)cc1)n2C1CCC1 the EC50 (Hepatitis C virus [3]) was 348 nM, the EC50 (Hepatitis C virus [1]) was 45 nM and the Kp at 6 h [4] was 15. It also gave an EC50 (Hepatitis C virus [5]) of 90 nM, an AUC(0-t) at 6 h [6] of 1.45 µM·h and an EC50 (Hepatitis C virus [7]) of 10 nM. The IC50 at 3 days [2] was over 10000 nM.
CCOc1cc2c(cc1F)c(C(N)=O)c(-c1ccc(NS(=O)(=O)C(C)(C)C)cc1)n2C1CCCC1 gave an EC50 (Hepatitis C virus [1]) of 150 nM and an IC50 at 3 days [2] of over 10000 nM.
In the case of Cc1cc2c(cc1F)c(C(N)=O)c(-c1ccc(NS(=O)(=O)C(C)(C)C)cc1)n2-c1ccncc1, the EC50 (Hepatitis C virus [1]) is reported as 68 nM and the IC50 at 3 days [2] is reported as over 10000 nM.
For Cc1cc(-c2c(C(N)=O)c3cc(F)c(OC(F)F)cc3n2C2CCCCC2)ccc1NS(=O)(=O)C(C)(C)C, the EC50 (Hepatitis C virus [1]) was 36 nM and the IC50 at 3 days [2] was over 1000 nM.
With Cc1cc2c(cc1F)c(C(N)=O)c(-c1ccc(NS(=O)(=O)C(C)(C)C)cc1)n2C1CCCCC1 the EC50 (Hepatitis C virus [3]) was 80 nM, the EC50 (Hepatitis C virus [1]) was 2 nM and the Kp at 6 h [4] was 11. For the same compound, the EC50 (Hepatitis C virus [5]) was 8 nM, the AUC(0-t) at 6 h [6] was 0.685 µM·h and the EC50 (Hepatitis C virus [7]) was 135 nM. The IC50 at 3 days [2] was over 10000 nM.
Compound CCCc1cc2c(cc1F)c(C(N)=O)c(-c1ccc(NS(=O)(=O)C(C)(C)C)cc1)n2C1CCCC1 has an EC50 (Hepatitis C virus [1]) of 1800 nM and an IC50 at 3 days [2] of 10000 nM.
In the case of Cc1cc2c(cc1F)c(C(N)=O)c(-c1ccc(NS(=O)(=O)C(C)C)cc1)n2C1CCCC1, the EC50 (Hepatitis C virus [1]) is reported as 56 nM and the IC50 at 3 days [2] is reported as over 10000 nM.
Work on CCCS(=O)(=O)Nc1ccc(-c2c(C(N)=O)c3cc(F)c(C)cc3n2C2CCCC2)cc1 yielded an EC50 (Hepatitis C virus [1]) of 870 nM and an IC50 at 3 days [2] of over 10000 nM.
With CCc1cc2c(cc1F)c(C(N)=O)c(-c1ccc(NS(=O)(=O)C(C)(C)C)nc1)n2C1CCCCC1 the EC50 (Hepatitis C virus [1]) was 19 nM and the IC50 at 3 days [2] was over 10000 nM.
For CC(C)(C)S(=O)(=O)Nc1ccc(-c2c(C(N)=O)c3cc(F)c(OC(F)F)cc3n2C2CCCCC2)cc1, the “fold change (FC)” value (Hepatitis C virus [8]) was over 55, the EC50 (Hepatitis C virus [3]) was 3 nM and the “fold change (FC)” value (Hepatitis C virus [9]) was “>=22”. For the same compound, the EC50 (Hepatitis C virus [1]) was 2 nM, the Kp at 6 h [4] was 25 and the EC50 (Hepatitis C virus [5]) was 1 nM. The AUC(0-t) at 6 h [6] was 0.831 µM·h, the EC50 (Hepatitis C virus [7]) was 35 nM and the IC50 at 3 days [2] was over 10000 nM.
Work on CC(C)(C)S(=O)(=O)Nc1ccc(-c2c(C(N)=O)c3cc(F)c(OC(F)F)cc3n2-c2ccccc2)cc1 yielded an EC50 (Hepatitis C virus [3]) of 12 nM, an EC50 (Hepatitis C virus [1]) of 2 nM and a Kp at 6 h [4] of 26. For the same compound, the EC50 (Hepatitis C virus [5]) was 2 nM, the AUC(0-t) at 6 h [6] was 14.4 µM·h and the EC50 (Hepatitis C virus [7]) was 62 nM. For the same compound, the IC50 at 3 days [2] was over 1100 nM.
For CC(C)(C)S(=O)(=O)Nc1ccc(-c2c(C(N)=O)c3cc(F)c(OC(F)F)cc3n2C2CCCCC2)c(F)c1, the EC50 (Hepatitis C virus [3]) was 0.4 nM, the EC50 (Hepatitis C virus [1]) was 2 nM and the Kp at 6 h [4] was 70. The EC50 (Hepatitis C virus [5]) was 2 nM, the AUC(0-t) at 6 h [6] was 3.09 µM·h and the EC50 (Hepatitis C virus [7]) was 23 nM. For the same compound, the IC50 at 3 days [2] was over 10000 nM.
Cc1cc(NS(=O)(=O)C(C)(C)C)ccc1-c1c(C(N)=O)c2cc(F)c(OC(F)F)cc2n1C1CCCC1 showed an EC50 (Hepatitis C virus [1]) of 14 nM and an IC50 at 3 days [2] of 9100 nM.
Work on CCc1cc2c(cc1F)c(C(N)=O)c(-c1ccc(NS(=O)(=O)C(C)(C)C)cn1)n2C1CCCCC1 yielded an EC50 (Hepatitis C virus [1]) of 68 nM and an IC50 at 3 days [2] of over 10000 nM.
Compound CC(C)(C)S(=O)(=O)Nc1ccc(-c2c(C(N)=O)c3cc(F)c(C4CC4)cc3n2C2CCCC2)cc1 has an EC50 (Hepatitis C virus [1]) of 13 nM and an IC50 at 3 days [2] of over 10000 nM.
Work on Cc1cc2c(cc1F)c(C(N)=O)c(-c1ccc(NS(=O)(=O)C(C)(C)C)cc1)n2-c1ccccc1 yielded an EC50 (Hepatitis C virus [3]) of 374 nM, an EC50 (Hepatitis C virus [1]) of 14 nM and a Kp at 6 h [4] of 24. For the same compound, the EC50 (Hepatitis C virus [5]) was 180 nM, the AUC(0-t) at 6 h [6] was 14.9 µM·h and the EC50 (Hepatitis C virus [7]) was 90 nM. The IC50 at 3 days [2] was over 10000 nM.
Compound Cc1cc2c(cc1F)c(C(N)=O)c(-c1ccc(NS(=O)(=O)C(C)(C)C)cc1)n2-c1ccc(Cl)cc1 has an EC50 (Hepatitis C virus [1]) of 43 nM and an IC50 at 3 days [2] of over 10000 nM.
CC(C)(C)S(=O)(=O)Nc1ccc(-c2c(C(N)=O)c3cc(F)c(OC(F)F)cc3n2-c2ccccc2)c(F)c1 gave an EC50 (Hepatitis C virus [3]) of 4 nM, an EC50 (Hepatitis C virus [1]) of 2 nM and a Kp at 6 h [4] of 57. It also gave an EC50 (Hepatitis C virus [5]) of 3 nM, an AUC(0-t) at 6 h [6] of 7.93 µM·h and an EC50 (Hepatitis C virus [7]) of 37 nM. It also gave an IC50 at 3 days [2] of over 10000 nM.
CC(C)(C)S(=O)(=O)Nc1ccc(-c2c(C(N)=O)c3cc(F)c(OC(F)F)cc3n2C2CCCC2)c(Cl)c1 gave an EC50 (Hepatitis C virus [3]) of 58 nM, an EC50 (Hepatitis C virus [1]) of 2 nM and a Kp at 6 h [4] of 65. The EC50 (Hepatitis C virus [5]) was 7 nM, the AUC(0-t) at 6 h [6] was 9.96 µM·h and the EC50 (Hepatitis C virus [7]) was 30 nM. It also gave an IC50 at 3 days [2] of 4500 nM.
